Experimental data from patent US8163536B2, “Device for preparing an undifferentiated cell from a more committed cell” (Tristem Trading (Cyprus) Limited, priority 2000, dated 2012).

How the values were obtained:
[1] = system: enriched, purified, normal B lymphocytes; test: Flow cytometry of enriched, purified, normal B lymphocytes treated with one of three agents (FIG. 20); format: cell-based, human; conditions: compared with the negative control
Method: Initial studies actually identified three agents—granulocyte/monocyte-colony stimulating factor (GM-CSF), erythropoietin and mAb CR3/43. A preparation of enriched, purified, normal B lymphocytes was treated in a device according to the present invention with one of these three agents in a similar manner to that described for CR3/43 and TAL.1B5 above and treated samples examined by flow cytometry as described above. […] In particular, all three agents increased the relative number of CD34^+ cells in the cell population (see FIG. 20).

[2] = system: displaced cells; conditions: pre-determined period, then calcium containing medium containing cortisone
Text: The erythroid progenitors can be cultured and expanded for long periods of time and may be used in the treatment red blood disorder and red blood shortages.

Row | Compound | relative number of CD34+ cells in the cell population (FIG. 20) [1] | retrodifferentiation of more committed cells [2]
1 | GM-CSF: granulocyte/monocyte-colony stimulating factor, haematopoietic growth factor | increased | 
2 | O=C(O)CN(CCN(CC(=O)O)CC(=O)O)CC(=O)O [EDTA] |  | caused more committed cells to retrodifferentiate into undifferentiated cells
